# Target: T1, human α-thrombin (Homo sapiens, UniProt P00734)
# T1 construct: human α-thrombin
# Experiment: In vitro assay for determining proteinase inhibition (thrombin)
# Type: biochemical
# Conditions: 25° C., 0.05 M TRIS buffer pH 7.4, 0.15 M NaCl, 0.1% PEG
# Description: In Vitro Assay for Determining Proteinase Inhibition
# Assays of human α-thrombin and human trypsin were performed at 25° C. in 0.05 M TRIS buffer pH 7.4, 0.15 M NaCl, 0.1% PEG. Trypsin assays also contained 1 mM CaCl2.
# In assays wherein rates of hydrolysis of a p-nitroanilide (pna) substrate were determined, a Thermomax 96-well plate reader was used to measure (at 405 nm) the time dependent appearance of p-nitroaniline. sar-PR-pna (sarcosine-Pro-Arg-p-nitroanilide) was used to assay human α-thrombin (Km=125 μM) and human trypsin (Km=59 μM). p-Nitroanilide substrate concentration was determined from measurements of absorbance at 342 nm using an extinction coefficient of 8270 cm-1M-1.
# In certain studies with potent inhibitors (Ki<10 nM) where the degree of inhibition of thrombin was high, a more sensitive activity assay was employed. In this assay the rate of thrombin catalyzed hydrolysis of the fluorogenic substrate Z-GPR-afc (Cbz-Gly-Pro-Arg-7-amino-4-trifluoromethylcoumarin) (Km=27 μM) was determined from the increase in fluorescence at 500 nm (excitation at 400 nm) associated with production of 7-amino-4-trifluoromethyl coumarin. Concentrations of stock solutions of Z-GPR-afc were determined from measurements of absorbance at 380 nm of the 7-amino-4-trifluoromethyl coumarin produced upon complete hydrolysis of an aliquot of the stock solution by thrombin.
# Activity assays were performed by diluting a stock solution of substrate at least tenfold to a final concentration≤0.5 Km into a solution containing enzyme or enzyme equilibrated with inhibitor. Times required to achieve equilibration between enzyme and inhibitor were determined in control experiments. Initial velocities of product formation in the absence (Vo) or presence of inhibitor (Vi) were measured. Assuming competitive inhibition, and that unity is negligible compared Km/[S], [I]/e, and [I]/e (where [S], [I], and e respectively represent the total concentrations, of substrate, inhibitor and enzyme), the equilibrium constant (Ki) for dissociation of the inhibitor from the enzyme can be obtained from the dependence of Vo/Vi on [I] shown in equation 1.
row,SMILES,Ki [nM]
1,Cc1nc(N)ccc1CNC(=O)Cn1c(C)cc2c([nH]c(=O)n2CCc2ccccc2)c1=O,< 10
2,Cc1nc(N)ccc1CNC(=O)Cn1c(C)cc2c([nH]c(=O)n2CCc2ccccn2)c1=O,< 10
3,Cc1nc(N)ccc1CNC(=O)Cn1c(C)cc2c([nH]c(=O)n2CC2CCCCC2)c1=O,> 10
4,Cc1nc(N)ccc1CNC(=O)Cn1c(C)cc2c([nH]c(=O)n2CCC(C)(C)C)c1=O,> 10
5,Cc1nc(N)ccc1CNC(=O)Cn1c(C)cc2c([nH]c(=O)n2[C@H](C)c2ccccc2)c1=O,> 10
6,Cc1nc(N)ccc1CNC(=O)Cn1c(C)cc2c([nH]c(=O)n2CC2CC2)c1=O,> 10
7,Cc1nc(N)ccc1CNC(=O)Cn1c(C)cc2c([nH]c(=O)n2CCC(C)C)c1=O,< 10
8,Cc1cc2c([nH]c(=O)n2CCC(C)C)c(=O)n1CC(=O)NCc1ccccc1OCC(=O)NC1CC1,> 10
